Tested on: transgenic maize plants
Test: Detection of the herbicide tolerance of the transgenic maize plants
Assay type: in vivo
Details: for The grade of pesticide damage/plant: 0 / The grade of pesticide damage/plant: 1 / The grade of pesticide damage/plant: 2 / The grade of pesticide damage/plant: 3: 7 DAT
Description: The transformed Arabidopsis thaliana T1 plants were initially selected using glufosinate herbicide. The Arabidopsis thaliana T1 plants (PPOA-01) into which the PPOA-01 nucleotide sequence was introduced, the Arabidopsis thaliana T1 plants (PPOB-01) into which the PPOB-01 nucleotide sequence was introduced, the Arabidopsis thaliana T1 plants (PPOC-01) into which the PPOC-01 nucleotide sequence was introduced, the Arabidopsis thaliana T1 plants (PPOD-01) into which the PPOD-01 nucleotide sequence was introduced, the Arabidopsis thaliana T1 plants (PPOE-01) into which the PPOE-01 nucleotide sequence was introduced, the Arabidopsis thaliana T1 plants (PPOF-01) into which the PPOF-01 nucleotide sequence was introduced, the Arabidopsis thaliana T1 plants (PPO-AP-01) into which the PPO-AP-01 nucleotide sequence was introduced, and the Arabidopsis thaliana T1 plants (control vector) into which the control vector was introduced, the wild-type Arabidopsis thaliana plants (CK) (with 24 plants being included in each genotype) (18 days after sowing) were sprayed with saflufenacil at three concentrations (25 g ai/ha (one-fold field concentration, 1×), 100 g ai/ha (four-fold field concentration, 4×), and 0 g ai/ha (water, 0×)), oxyfluorfen at three concentrations (180 g ai/ha (one-fold field concentration, 1×), 720 g ai/ha (four-fold field concentration, 4×), and 0 g ai/ha (water, 0×)), and flumioxazin at three concentrations (60 g ai/ha (one-fold field concentration, 1×), 240 g ai/ha (four-fold field concentration, 4×), and 0 g ai/ha (water, 0×) to determine the tolerance of Arabidopsis thaliana to the herbicides. After 7 days of spraying (7 DAT), the damage level of each plant caused by the herbicide was evaluated according to the average of the damage levels (%) of plants (the average of the damage levels (%) of plants=the injured leaf area/the total leaf area×100%), i.e., the grade of pesticide damage: grade 0 means that the growth status of plants is essentially consistent with those sprayed with the blank solvent (water); grade 1 means that the average of the damage levels of plants is less than 10%; grade 2 means that the average of the damage levels of plants is greater than 10%; and grade 3 means that the average of the damage levels of plants is 100%. The plants having a growth status falling within grades 0 and 1 are classified as highly resistant plants; those having a growth status falling within grade 2 are classified as poorly resistant plants; and those having a growth status falling within grade 3 are classified as non-resistant plants.
The maize plants into which the PPOA-02 nucleotide sequence was introduced, the maize plants into which the PPOB-02 nucleotide sequence was introduced, the maize plants into which the PPOC-02 nucleotide sequence was introduced, the maize plants into which the PPOD-02 nucleotide sequence was introduced, the maize plants into which the PPOE-02 nucleotide sequence was introduced, the maize plants into which the PPOF-02 nucleotide sequence was introduced, the maize plants into which the PPO-AP-02 nucleotide sequence was introduced, the maize plants (control vector) into which the control vector was introduced, and the wild-type maize plants (CK) (with 16 plants being included in each genotype) (18 days after sowing) were taken and sprayed with saflufenacil at three concentrations (50 g ai/ha (two-fold field concentration, 2×), 100 g ai/ha (four-fold field concentration, 4×), and 0 g ai/ha (water, 0×)), oxyfluorfen at three concentrations (360 g ai/ha (two-fold field concentration, 2×), 720 g ai/ha (four-fold field concentration, 4×), and 0 g ai/ha (water, 0×), and flumioxazin at three concentrations (120 g ai/ha (two-fold field concentration, 2×), 240 g ai/ha (four-fold field concentration, 4×), and 0 g ai/ha (water, 0×) to determine the tolerance of maize plants to the herbicides. […]

[1] = genotype Control vector, 120 g ai/ha
[2] = genotype Control vector, 240 g ai/ha
[3] = genotype PPO-AP-02, 120 g ai/ha
[4] = genotype PPO-AP-02, 240 g ai/ha

C#CCN1C(=O)COc2cc(F)c(N3C(=O)C4=C(CCCC4)C3=O)cc21 [flumioxazin, 2-[7-fluoro-3,4-dihydro-3-oxo-4-(2-propynyl)-2H-1,4-benzoxazin-6-yl]-4,5,6,7-tetrahydro-1H-isoindole-1,3(2H)-dione]
The grade of pesticide damage/plant: 0 (genotype CK, 120 g ai/ha): 0 plant
The grade of pesticide damage/plant: 1 (genotype CK, 120 g ai/ha): 0 plant
The grade of pesticide damage/plant: 2 (genotype CK, 120 g ai/ha): 0 plant
The grade of pesticide damage/plant: 3 (genotype CK, 120 g ai/ha): 16 plant
The grade of pesticide damage/plant: 0 (genotype CK, 240 g ai/ha): 0 plant
The grade of pesticide damage/plant: 1 (genotype CK, 240 g ai/ha): 0 plant
The grade of pesticide damage/plant: 2 (genotype CK, 240 g ai/ha): 0 plant
The grade of pesticide damage/plant: 3 (genotype CK, 240 g ai/ha): 16 plant
The grade of pesticide damage/plant: 0 [1]: 0 plant
The grade of pesticide damage/plant: 1 [1]: 0 plant
The grade of pesticide damage/plant: 2 [1]: 0 plant
The grade of pesticide damage/plant: 3 [1]: 16 plant
The grade of pesticide damage/plant: 0 [2]: 0 plant
The grade of pesticide damage/plant: 1 [2]: 0 plant
The grade of pesticide damage/plant: 2 [2]: 0 plant
The grade of pesticide damage/plant: 3 [2]: 16 plant
The grade of pesticide damage/plant: 0 [3]: 0 plant
The grade of pesticide damage/plant: 1 [3]: 0 plant
The grade of pesticide damage/plant: 2 [3]: 3 plant
The grade of pesticide damage/plant: 3 [3]: 13 plant
The grade of pesticide damage/plant: 0 [4]: 0 plant
The grade of pesticide damage/plant: 1 [4]: 0 plant
The grade of pesticide damage/plant: 2 [4]: 0 plant
The grade of pesticide damage/plant: 3 [4]: 16 plant
tolerance to the herbicide (in words) (genotype PPO-AP-02, at different concentrations): basically no tolerance
The grade of pesticide damage/plant: 0 (genotype PPOA-02, 120 g ai/ha): 16 plant
The grade of pesticide damage/plant: 1 (genotype PPOA-02, 120 g ai/ha): 0 plant
The grade of pesticide damage/plant: 2 (genotype PPOA-02, 120 g ai/ha): 0 plant
The grade of pesticide damage/plant: 3 (genotype PPOA-02, 120 g ai/ha): 0 plant
The grade of pesticide damage/plant: 0 (genotype PPOA-02, 240 g ai/ha): 16 plant
The grade of pesticide damage/plant: 1 (genotype PPOA-02, 240 g ai/ha): 0 plant
The grade of pesticide damage/plant: 2 (genotype PPOA-02, 240 g ai/ha): 0 plant
The grade of pesticide damage/plant: 3 (genotype PPOA-02, 240 g ai/ha): 0 plant
The grade of pesticide damage/plant: 0 (genotype PPOB-02, 120 g ai/ha): 16 plant
The grade of pesticide damage/plant: 1 (genotype PPOB-02, 120 g ai/ha): 0 plant
The grade of pesticide damage/plant: 2 (genotype PPOB-02, 120 g ai/ha): 0 plant
The grade of pesticide damage/plant: 3 (genotype PPOB-02, 120 g ai/ha): 0 plant
The grade of pesticide damage/plant: 0 (genotype PPOB-02, 240 g ai/ha): 16 plant
The grade of pesticide damage/plant: 1 (genotype PPOB-02, 240 g ai/ha): 0 plant
The grade of pesticide damage/plant: 2 (genotype PPOB-02, 240 g ai/ha): 0 plant
The grade of pesticide damage/plant: 3 (genotype PPOB-02, 240 g ai/ha): 0 plant
The grade of pesticide damage/plant: 0 (genotype PPOC-02, 120 g ai/ha): 16 plant
The grade of pesticide damage/plant: 1 (genotype PPOC-02, 120 g ai/ha): 0 plant
The grade of pesticide damage/plant: 2 (genotype PPOC-02, 120 g ai/ha): 0 plant
The grade of pesticide damage/plant: 3 (genotype PPOC-02, 120 g ai/ha): 0 plant
The grade of pesticide damage/plant: 0 (genotype PPOC-02, 240 g ai/ha): 16 plant
The grade of pesticide damage/plant: 1 (genotype PPOC-02, 240 g ai/ha): 0 plant
The grade of pesticide damage/plant: 2 (genotype PPOC-02, 240 g ai/ha): 0 plant
The grade of pesticide damage/plant: 3 (genotype PPOC-02, 240 g ai/ha): 0 plant
The grade of pesticide damage/plant: 0 (genotype PPOD-02, 120 g ai/ha): 16 plant
The grade of pesticide damage/plant: 1 (genotype PPOD-02, 120 g ai/ha): 0 plant
The grade of pesticide damage/plant: 2 (genotype PPOD-02, 120 g ai/ha): 0 plant
The grade of pesticide damage/plant: 3 (genotype PPOD-02, 120 g ai/ha): 0 plant
The grade of pesticide damage/plant: 0 (genotype PPOD-02, 240 g ai/ha): 16 plant
The grade of pesticide damage/plant: 1 (genotype PPOD-02, 240 g ai/ha): 0 plant
The grade of pesticide damage/plant: 2 (genotype PPOD-02, 240 g ai/ha): 0 plant
The grade of pesticide damage/plant: 3 (genotype PPOD-02, 240 g ai/ha): 0 plant
The grade of pesticide damage/plant: 0 (genotype PPOE-02, 120 g ai/ha): 16 plant
The grade of pesticide damage/plant: 1 (genotype PPOE-02, 120 g ai/ha): 0 plant
The grade of pesticide damage/plant: 2 (genotype PPOE-02, 120 g ai/ha): 0 plant
The grade of pesticide damage/plant: 3 (genotype PPOE-02, 120 g ai/ha): 0 plant
The grade of pesticide damage/plant: 0 (genotype PPOE-02, 240 g ai/ha): 16 plant
The grade of pesticide damage/plant: 1 (genotype PPOE-02, 240 g ai/ha): 0 plant
The grade of pesticide damage/plant: 2 (genotype PPOE-02, 240 g ai/ha): 0 plant
The grade of pesticide damage/plant: 3 (genotype PPOE-02, 240 g ai/ha): 0 plant
The grade of pesticide damage/plant: 0 (genotype PPOF-02, 120 g ai/ha): 16 plant
The grade of pesticide damage/plant: 1 (genotype PPOF-02, 120 g ai/ha): 0 plant
The grade of pesticide damage/plant: 2 (genotype PPOF-02, 120 g ai/ha): 0 plant
The grade of pesticide damage/plant: 3 (genotype PPOF-02, 120 g ai/ha): 0 plant
The grade of pesticide damage/plant: 0 (genotype PPOF-02, 240 g ai/ha): 16 plant
The grade of pesticide damage/plant: 1 (genotype PPOF-02, 240 g ai/ha): 0 plant
The grade of pesticide damage/plant: 2 (genotype PPOF-02, 240 g ai/ha): 0 plant
The grade of pesticide damage/plant: 3 (genotype PPOF-02, 240 g ai/ha): 0 plant
tolerance to the herbicide (in words) (genotypes PPOA-02 to PPOF-02, at different concentrations): high-resistant tolerance
